The values below come from ChEMBL document CHEMBL4256943, “Inhibitors of cyp17a1” (2016).

The structures appear in SMILES notation.

The species entered for this experiment is Homo sapiens. The experiment in a line: Selectivity factor, ratio of IC50 for human membrane bound C-terminal His4-tagged CYP21A2delta19H mutant to IC50 for human membrane bound C-terminal His4-tagged CYP17A1delta19H mutant.

Take `C[C@]12CC[C@H](O)C[C@@H]1/C(=N/O)C[C@@H]1[C@@H]2CC[C@]2(C)C(c3cccnc3)=CC[C@@H]12`: the Ratio IC50 came out at 68.9.
